Measurements reported in patent US20110154724A1, “FATTY ESTER COMPOSITIONS WITH IMPROVED OXIDATIVE STABILITY” (TAMINCO, priority 2008, published 2011).
Blank lines part the entries; values can stand above or below the compound they belong to.

Columns and labels:
[1] = Rancimat oxidative stability (EN 14112) of biodiesel with additives; format: physicochemical; settings: for Rancimat oxidative stability: untreated 5.1 hours, EN 14112
Excerpt: The oxidative stability of biodiesel is an important property thereof and is subjected to criteria which may differ from country to country. In the US, oxidative testing of biodiesel is done according to ASTM 6751-08 whereby the B100 (100% biodiesel) must pass a minimum of three hours oxidative stability as done by the Rancimat test. The European oxidation criteria is a minimum of six hours as per EN 14112. Some commercial biodiesel manufacturers and blenders require even eight hours oxidative stability to ensure that B100 biodiesel stored for prolonged periods of time will be suitable for commerce.
Use was made in this example of a pure soy-biodiesel (methyl ester of soy oil) from a commercial source having a Rancimat oxidative stability (tested in accordance with EN 14112) of 5.1 hours.

[2] = Solubility tests of antioxidant package components in alkanolamine / hydroxylamine; format: physicochemical
Method: Additionally, 2 grams of octyldiethanolamine (ODEA) was added to the additive mixture.

[3] = 25° C.; cited from earlier work
[4] = 450 ppm added to B100 soy-biodiesel

SMILES: CCCCN(CCO)CCO [BDEA, butyldiethanolamine]
oxidation stability ([1]; 250 ppm added to a different sample of soy methyl ester): 3.5 h | Rancimat oxidative stability [1, 4]: 6.1 h

SMILES: CCN(O)CC [Diethylhydroxylamine, diethylhydroxylamine]
vapor pressure [3]: 32 Torr

SMILES: CC1(C)CC(O)CC(C)(C)N1[O] [4-HT, 4-hydroxy-2,2,6,6-tetramethylpiperidino-1-oxy]
Rancimat oxidative stability ([1]; 50 ppm added to B100 soy-biodiesel): 5.5 h

Continued, values first:

solubility in OAE ([2]; 0.5 grams 4-HT along with 1 gram propyl gallate into 15 grams OAE): completely soluble
SMILES: CCCOC(=O)c1cc(O)c(O)c(O)c1 [propyl gallate]

solubility in anhydrous DEHA ([2]; 0.5 grams 4-HT into 7.5 grams anhydrous DEHA, additionally 2 grams ODEA): completely soluble | Rancimat oxidative stability [1, 4]: 8.3 h
SMILES: CCCCCCCCN(CCO)CCO [ODEA, octyldiethanolamine]
